Values after ≈ are worked out from the molar mass of the structure shown. Values joined by “and” are separate entries in the source; they are usually repeats but may differ in a detail not shown here. Equal values may be shown once. Where a name gives a salt, the structure may show the parent alone. Read-outs that look alike come from different tables or passages of the source.
Assays:
HIV-1 strain LAI = experiment: HIV-1 replication reverse transcriptase (RT) assay in PBMC; format: cell-based, human immunodeficiency virus type 1; conditions: for EC90: Human immunodeficiency virus 1, read-out: Anti-HIV-1LAI activity EC90
in vitro [1] = conditions: human
in vitro [2] = conditions: African green monkey
Cytotoxicity on CCRF-CEM = conditions: human, CCRF-CEM cells (T-lymphoblastic acute T cell leukemia), Cytotoxicity CC50, CCRF-CEM
[3] = tested on: Vaccinia virus Copenhagen; experiment: microbe, parasite or virus in culture; format: cell-based; conditions: Orthopoxvirus vaccinia, HFF-1
[4] = Cytotoxicity on primary human foreskin fibroblasts; conditions: human
cytosolic GRs = target: T1, cytosolic GRs (Homo sapiens, UniProt P04150); conditions: Peeters et al., 2008; cited from earlier work
T1 sequence (P04150 1-777): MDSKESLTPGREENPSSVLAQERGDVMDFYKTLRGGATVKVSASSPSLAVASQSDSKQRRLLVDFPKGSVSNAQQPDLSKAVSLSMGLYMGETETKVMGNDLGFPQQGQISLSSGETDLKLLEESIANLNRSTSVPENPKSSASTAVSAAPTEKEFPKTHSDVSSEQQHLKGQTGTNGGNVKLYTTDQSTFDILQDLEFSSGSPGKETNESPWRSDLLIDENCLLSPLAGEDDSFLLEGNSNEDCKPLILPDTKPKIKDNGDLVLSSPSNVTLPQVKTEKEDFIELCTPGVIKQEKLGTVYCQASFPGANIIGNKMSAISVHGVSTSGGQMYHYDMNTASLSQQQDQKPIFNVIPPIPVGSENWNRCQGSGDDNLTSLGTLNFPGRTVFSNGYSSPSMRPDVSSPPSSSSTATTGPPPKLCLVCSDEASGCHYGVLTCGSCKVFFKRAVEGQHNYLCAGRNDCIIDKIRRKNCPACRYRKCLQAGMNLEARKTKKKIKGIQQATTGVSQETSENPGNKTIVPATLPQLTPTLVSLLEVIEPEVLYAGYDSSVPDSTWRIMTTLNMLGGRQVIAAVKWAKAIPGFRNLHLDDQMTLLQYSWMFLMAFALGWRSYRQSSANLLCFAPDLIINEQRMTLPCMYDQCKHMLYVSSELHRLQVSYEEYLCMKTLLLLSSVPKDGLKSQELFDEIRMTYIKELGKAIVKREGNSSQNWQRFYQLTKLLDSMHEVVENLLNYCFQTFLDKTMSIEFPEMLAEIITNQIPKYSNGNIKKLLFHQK

[5] = target: cytosolic progesterone receptors (PR) (Homo sapiens, UniProt P06401); conditions: Peeters et al., 2008; cited from earlier work
[6] = rats, twice daily 1-2 mg kg−1 po; cited from earlier work
[7] = cited from earlier work
[8] = Phosphatidylcholine binding (thin-layer chromatographic run); conditions: words
[9] = tested on: Enterovirus D68 US/KY/14-18953; experiment: Enterovirus D68 antiviral screen in RD; format: cell-based; conditions: Enterovirus D, US/KY/14-18953, RD, read-out: EC50
[10] = Cytotoxicity on RD host cells; format: cell-based; conditions: human, RD cells, Enterovirus D68 screen, read-out: CC50
Dengue 2 = experiment: Dengue virus antiviral screen in HUH7; format: cell-based, dengue virus type 2; conditions: Dengue virus, Huh-7, New Guinea C, read-out: EC50
Zika virus MR766 = experiment: Zika virus antiviral screen in HuH-7; format: cell-based; conditions: for EC50: Zika virus, read-out: EC50
in vitro [11] = conditions: human, CC50
[12] = tested on: Hepatitis B virus (HBV) ayw; experiment: Hepatitis B virus replication in HepAD38 (32P dot blot); format: cell-based; conditions: Hepatitis B virus
[13] = tested on: Hepatitis C virus (replicon) clone B (genotype 1a); experiment: HCV genotype 1a HuH-7 clone B subgenomic replicon RNA replication; format: cell-based, human hepatitis C virus; conditions: Fixed: 10 μM, Clone B genotype 1a, HuH-7, Replicon
[14] = tested on: Norwalk virus (replicon) GT1; experiment: Norwalk virus replicon (GT1) in HG23, RNA hybridization; format: cell-based, Norwalk virus (human norovirus); conditions: Norovirus/1968/US, HG23, Replicon
[15] = tested on: cellular ribosomal RNA (rRNA) synthesis; experiment: Cellular ribosomal RNA synthesis in HCV replicon cells (TaqMan RT-qPCR); format: cell-based; conditions: Fixed: 10 μM, Clone B genotype 1a, HuH-7, Replicon
Poliovirus type 3 WM-3 = experiment: microbe, parasite or virus in culture; format: cell-based; conditions: Enterovirus C, Vero 76
[16] = tested on: Enterovirus 71 Tainan/4643/98; experiment: microbe, parasite or virus in culture; format: cell-based; conditions: Enterovirus A, Vero 76
Vero 76 = conditions: African green monkey
in vitro [17] = conditions: African green monkey; remark: listed apart in the source
[18] = tested on: Herpes simplex virus type 1 E-377; experiment: Herpes simplex virus type 1 antiviral screen in primary HFF-1 (CellTiter-Glo); format: cell-based; conditions: Human alphaherpesvirus 1; E-377, Primary HFF-1, CellTiter-Glo
Tacaribe TRVL11573 = experiment: microbe, parasite or virus in culture; format: cell-based, Tacaribe virus
Rift Valley fever MP-12 = experiment: microbe, parasite or virus in culture; format: cell-based, Rift Valley fever virus
[19] = tested on: Respiratory syncytial type A A2 (VR-1540); experiment: Respiratory syncytial virus type A antiviral screen in MA-104; format: cell-based; conditions: human respiratory syncytial virus, MA104, A2 (VR-1540), read-out: EC50
[20] = tested on: swine-origin pandemic influenza A (H1N1) virus; experiment: microbe, parasite or virus in culture; format: cell-based
PBMC = conditions: human
Vero = conditions: African green monkey
CCRF-CEM = experiment: Cytotoxicity on CCRF-CEM; conditions: read-out: Cytotoxicity CC50, CCRF-CEM

Chain of cytosolic progesterone receptors (PR) (P06401 whole entry): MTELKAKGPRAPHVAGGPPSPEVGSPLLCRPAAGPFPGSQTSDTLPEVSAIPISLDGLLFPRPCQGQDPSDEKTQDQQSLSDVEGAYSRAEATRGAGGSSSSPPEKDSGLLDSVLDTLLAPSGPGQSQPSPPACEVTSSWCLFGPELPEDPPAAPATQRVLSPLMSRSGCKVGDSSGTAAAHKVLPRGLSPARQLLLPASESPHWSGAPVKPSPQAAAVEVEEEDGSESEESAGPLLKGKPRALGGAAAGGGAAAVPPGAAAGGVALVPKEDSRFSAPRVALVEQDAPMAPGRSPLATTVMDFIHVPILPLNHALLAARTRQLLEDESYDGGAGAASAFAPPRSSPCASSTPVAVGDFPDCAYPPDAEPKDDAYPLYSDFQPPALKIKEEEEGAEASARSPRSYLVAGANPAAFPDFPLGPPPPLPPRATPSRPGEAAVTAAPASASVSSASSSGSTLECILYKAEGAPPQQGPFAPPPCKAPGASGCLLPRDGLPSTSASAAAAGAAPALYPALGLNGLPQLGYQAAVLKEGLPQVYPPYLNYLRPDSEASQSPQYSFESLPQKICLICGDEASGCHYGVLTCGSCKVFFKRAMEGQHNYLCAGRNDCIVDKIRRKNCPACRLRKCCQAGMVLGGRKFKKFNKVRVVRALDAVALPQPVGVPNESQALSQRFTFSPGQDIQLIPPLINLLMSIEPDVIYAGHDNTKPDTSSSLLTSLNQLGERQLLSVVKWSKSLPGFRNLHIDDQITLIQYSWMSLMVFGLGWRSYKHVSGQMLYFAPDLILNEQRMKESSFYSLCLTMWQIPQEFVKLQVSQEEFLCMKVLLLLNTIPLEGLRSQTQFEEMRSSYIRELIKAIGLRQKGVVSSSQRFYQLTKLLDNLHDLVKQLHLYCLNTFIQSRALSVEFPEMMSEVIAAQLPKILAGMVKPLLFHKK

Nc1ccn([C@@H]2O[C@H](CO)[C@@H](O)[C@H]2O)c(=O)[n+]1[C-2][n+]1c(N)ccn([C@@H]2O[C@H](CO)[C@@H](O)[C@H]2O)c1=O [TCY-1, Bis(cytidin-3-ium-3-yl)methanediide monohydrochloride×1.25H2O]
EC50 (HIV-1 strain LAI; Human immunodeficiency virus 1, PBMC, in PBMC, read-out: Anti-HIV-1LAI activity EC50): 290 nM | EC90 (HIV-1 strain LAI; in PBMC): 1000 nM | CC50 (in vitro [1]): > 100 µM | CC50 (in vitro [2]; Cytotoxicity CC50): > 100 µM | CC50 (Cytotoxicity on CCRF-CEM): > 100 µM

Nc1ccn(C[C@@H](CO)OCP(=O)(O)O)c(=O)n1 [Cidofovir]
EC50 [3]: 7.34 µM | CC50 ([4]; primary HFF-1 human foreskin fibroblasts, CC50): > 150 µM

CC#C[C@]1(O)CC[C@H]2[C@@H]3CCC4=CC(=O)CCC4=C3[C@@H](c3ccc(N(C)C)cc3)C[C@@]21C [mifepristone, reference compound]
bound to cytosolic GRs, value (cytosolic GRs): 193% | value for the cytosolic progesterone receptors (PR) [5]: 36% | embryos lost [6]: ~100% | responding ([7]; glucose intolerant group): 60% | responding ([7]; hypertensive group): 43%

CC#C[C@]1(O)CC[C@H]2[C@@H]3CCC4=C/C(=N/NC(N)=S)CCC4=C3[C@@H](c3ccc4c(c3)OCO4)C[C@@]21C [(E)-ORG34517 thiosemicarbazone]
binding to PC [8]: Weak (stereospecific!) binding to PC

CC(C)S(=O)(=O)n1c(N)nc2ccc(/C(=N/O)c3ccccc3)cc21 [Enviroxime]
EC50 ([9]; Neutral red): 0.1 µg/mL (≈ 0.279 µM) | EC50 ([9]; Visual): < 0.1 µg/mL | CC50 ([10]; Neutral red): 25 µg/mL (≈ 69.7 µM) | CC50 ([10]; Visual): 32 µg/mL (≈ 89.3 µM)

O=c1cnn([C@@H]2O[C@H](CO)[C@@H](O)[C@H]2O)c(=O)[nH]1 [6-azauridine, reference compound]
EC50 (Dengue 2; HuH-7, Neutral red): 4.6 µg/mL (≈ 18.8 µM) | EC50 (Dengue 2; HuH-7, Visual): 2.8 µg/mL (≈ 11.4 µM) | EC90 (Zika virus MR766; Huh-7, Visual (Virus yield reduction), Zika virus MR766, HUH7, Example 9, unit from Conc. Range, read-out: EC90): 0.89 µg/mL (≈ 3.63 µM) | EC50 (Zika virus MR766; Huh-7, MR766, HuH-7, Neutral red): 11 µg/mL | EC50 (Zika virus MR766; Huh-7, MR766, HuH-7, Visual): 3.2 µg/mL | EC50 (Zika virus MR766; Huh-7, Neutral Red (Cytopathic effect/Toxicity), Zika virus MR766, HUH7, Example 9): 4.1 µg/mL | EC50 (Zika virus MR766; Huh-7, Zika virus MR766, HuH-7, Table 10): 13.1 µM | CC50 (in vitro [11]): > 408 µM

Nc1ccn([C@@H]2CS[C@H](CO)O2)c(=O)n1 [Lamivudine]
EC50 [12]: 30 nM

C[C@@]1(O)[C@H](O)[C@@H](CO)O[C@H]1n1ccc(N)nc1=O [RS-446]
% Inhib replication [13]: 98.08% | EC50 [14]: 6.9 µM | % Inhib rRNA(tox) [15]: 31.09%

CCOC(=O)c1ccc(OCCC2CCN(c3ccc(C)nn3)CC2)cc1 [pirodavir, reference compound]
EC50 (Poliovirus type 3 WM-3): 970 nM | EC90 (Poliovirus type 3 WM-3): 0.14 µg/mL (≈ 0.379 µM) | EC50 [16]: 97 nM | EC90 [16]: 0.23 µg/mL (≈ 0.623 µM) | CC50 (Vero 76): 7.8 µg/mL (≈ 21.1 µM) | CC50 (in vitro [17]): > 27 µM and > 10 µg/mL

Nc1nc2c(ncn2COCCO)c(=O)[nH]1 [Aciclovir]
EC50 [18]: 3.85 µM | CC50 ([4]; primary human foreskin fibroblasts (HFF-1), CC50, Herpes simplex virus type 1 screen, Primary HFF-1, CellTiter-Glo): > 150 µM

NC(=O)c1ncn([C@@H]2O[C@H](CO)[C@@H](O)[C@H]2O)n1 [Ribavirin]
EC50 (Tacaribe TRVL11573): 7 µg/mL (≈ 28.7 µM) | EC50 (Tacaribe TRVL11573; Mammarenavirus tacaribeense, Vero): 7.9 µg/mL (≈ 32.3 µM) | EC50 (Rift Valley fever MP-12): 8.3 µg/mL (≈ 34 µM) | EC50 (Rift Valley fever MP-12; Rift Valley fever virus, Vero 76): 9.7 µg/mL (≈ 39.7 µM) | EC50 ([19]; MA-104, Neutral red): 6.8 µg/mL (≈ 27.8 µM) | EC50 ([19]; MA-104, Visual): 6.7 µg/mL (≈ 27.4 µM) | EC50 [20]: 13 µg/mL (≈ 53.2 µM) | EC50 ([20]; Influenza A virus, H1N1, MDCK): 14 µg/mL (≈ 57.3 µM) | CC50 (in vitro [2]; CC50): > 1000 µg/mL | CC50 (in vitro [17]): > 1000 µg/mL

Cc1cn([C@H]2C[C@H](N=[N+]=[N-])[C@@H](CO)O2)c(=O)[nH]c1=O [AZT, 3′-azido-3′-deoxythymidine, reference compound]
EC50 (HIV-1 strain LAI; Human immunodeficiency virus 1, PBMC, LAI, PBMC, RT 3H-dTTP, read-out: EC50): 0.79 nM | EC90 (HIV-1 strain LAI; in PBMC): 29.9 nM | EC50 (HIV-1 strain LAI; in PBMC, listed as zidovudine (AZT), read-out: Anti-HIV-1LAI activity EC50): 4.4 ± 3.9 nM | CC50 (PBMC): > 100 µM | CC50 (Vero): 39.5 µM | CC50 (in vitro [1]): > 100 µM | CC50 (in vitro [2]; Cytotoxicity CC50): 56 µM | CC50 (CCRF-CEM): 14.3 µM | CC50 (CCRF-CEM; listed as zidovudine (AZT)): 56.1 µM

— patent US9598459B2, “Pharmaceutical compositions and methods” (priority 2015, dated 2017)
